Measured values: patent publication US7985731B2, “Sugar chain added GLP-1 peptide” (Otsuka Chemical Holdings Co., Ltd., priority 2007, dated 2011)
Peptide text beside a SMILES is read from it. * marks the point of attachment. X1 = CC(=O)N[C@@H]1[C@@H](O)[C@H](O[C@@H]2O[C@H](CO)[C@@H](O[C@@H]3O[C@H](CO[C@H]4O[C@H](CO)[C@@H](O)[C@H](O)[C@@H]4O[C@@H]4O[C@H](CO)[C@@H](O[C@@H]5O[C@H](CO[C@]6(C(=O)O)C[C@H](O)[C@@H](NC(C)=O)[C@H]([C@H](O)[C@H](O)CO)O6)[C@H](O)[C@H](O)[C@H]5O)[C@H](O)[C@H]4NC(C)=O)[C@@H](O)[C@H](O[C@H]4O[C@H](CO)[C@@H](O)[C@H](O)[C@@H]4O[C@@H]4O[C@H](CO)[C@@H](O[C@@H]5O[C@H](CO[C@]6(C(=O)O)C[C@H](O)[C@@H](NC(C)=O)[C@H]([C@H](O)[C@H](O)CO)O6)[C@H](O)[C@H](O)[C@H]5O)[C@H](O)[C@H]4NC(C)=O)[C@@H]3O)[C@H](O)[C@H]2NC(C)=O)[C@@H](CO)O[C@H]1NC(=O)C*

Test system: C57BL/6JJcl mice
Assay: Test Example 7: Oral Glucose Tolerance Test (OGTT)
Format: in vivo
Protocol: After 30 minutes, a glucose solution was orally administered at a dose of 1 mg/g. Blood was collected from the orbits before the glucose administration and 30 minutes, 60 minutes and 120 minutes after the glucose administration. Blood-sugar levels were measured using ACCU-CHEK Aviva (Roche Diagnostics).
After the oral administration of the glucose solution to the mice fasted overnight, blood was collected over time, and blood-sugar levels were measured.
The correlation between the oligosaccharide chain structure and the activity was studied in mouse OGTT.

[1] = 9 nmol/kg intraperitoneal 30 minutes before glucose 1 mg/g oral

| Structure (SMILES) | effect of suppressing rise in blood-sugar levels in OGTT [1] | effect of suppressing rise in blood-sugar levels in OGTT (0.9 nmol/kg intraperitoneal) | activity of suppressing rise in blood-sugar levels in OGTT relative to GLP-1 (times) (from doses giving equivalent effect, GLP-1 at 9 nmol/kg) |
| --- | --- | --- | --- |
| CC[C@H](C)[C@H](NC(=O)[C@H](Cc1ccccc1)NC(=O)[C@H](CCC(=O)O)NC(=O)[C@H](CCCCN)NC(=O)[C@H](C)NC(=O)[C@H](C)NC(=O)[C@H](CCC(N)=O)NC(=O)CNC(=O)[C@H](CCC(=O)O)NC(=O)[C@H](CC(C)C)NC(=O)[C@H](Cc1ccc(O)cc1)NC(=O)[C@H](CSCC(=O)N[C@@H]1O[C@H](CO)[C@@H](O[C@@H]2O[C@H](CO)[C@@H](O[C@@H]3O[C@H](CO[C@H]4O[C@H](CO)[C@@H](O)[C@H](O)[C@@H]4O[C@@H]4O[C@H](CO)[C@@H](O[C@@H]5O[C@H](CO[C@]6(C(=O)O)C[C@H](O)[C@@H](NC(C)=O)[C@H]([C@H](O)[C@H](O)CO)O6)[C@H](O)[C@H](O)[C@H]5O)[C@H](O)[C@H]4NC(C)=O)[C@@H](O)[C@H](O[C@H]4O[C@H](CO)[C@@H](O)[C@H](O)[C@@H]4O[C@@H]4O[C@H](CO)[C@@H](O[C@@H]5O[C@H](CO[C@]6(C(=O)O)C[C@H](O)[C@@H](NC(C)=O)[C@H]([C@H](O)[C@H](O)CO)O6)[C@H](O)[C@H](O)[C@H]5O)[C@H](O)[C@H]4NC(C)=O)[C@@H]3O)[C@H](O)[C@H]2NC(C)=O)[C@H](O)[C@H]1NC(C)=O)NC(=O)[C@H](CO)NC(=O)[C@@H](NC(=O)[C@H](CC(=O)O)NC(=O)[C@H](CO)NC(=O)[C@@H](NC(=O)[C@H](Cc1ccccc1)NC(=O)[C@@H](NC(=O)CNC(=O)[C@H](CCC(=O)O)NC(=O)[C@H](C)NC(=O)[C@@H](N)Cc1c[nH]cn1)[C@@H](C)O)[C@@H](C)O)C(C)C)C(=O)N[C@@H](C)C(=O)N[C@@H](Cc1c[nH]c2ccccc12)C(=O)N[C@@H](CC(C)C)C(=O)N[C@H](C(=O)N[C@@H](CCCCN)C(=O)NCC(=O)N[C@@H](CCCNC(=N)N)C(=O)NCC(=O)O)C(C)C [Example 1, 18Cys GLP-1-disialo] (H-HAEGTFTSDVSC(X1)YLEGQAAKEFIAWLVKGRG-OH) | strong effect of suppressing rise in blood-sugar levels |  |  |
| CC[C@H](C)[C@H](NC(=O)[C@H](Cc1ccccc1)NC(=O)[C@H](CCC(=O)O)NC(=O)[C@H](CCCCN)NC(=O)[C@H](C)NC(=O)[C@H](C)NC(=O)[C@H](CCC(N)=O)NC(=O)CNC(=O)[C@H](CCC(=O)O)NC(=O)[C@H](CSCC(=O)N[C@@H]1O[C@H](CO)[C@@H](O[C@@H]2O[C@H](CO)[C@@H](O[C@@H]3O[C@H](CO[C@H]4O[C@H](CO)[C@@H](O)[C@H](O)[C@@H]4O[C@@H]4O[C@H](CO)[C@@H](O[C@@H]5O[C@H](CO[C@]6(C(=O)O)C[C@H](O)[C@@H](NC(C)=O)[C@H]([C@H](O)[C@H](O)CO)O6)[C@H](O)[C@H](O)[C@H]5O)[C@H](O)[C@H]4NC(C)=O)[C@@H](O)[C@H](O[C@H]4O[C@H](CO)[C@@H](O)[C@H](O)[C@@H]4O[C@@H]4O[C@H](CO)[C@@H](O[C@@H]5O[C@H](CO[C@]6(C(=O)O)C[C@H](O)[C@@H](NC(C)=O)[C@H]([C@H](O)[C@H](O)CO)O6)[C@H](O)[C@H](O)[C@H]5O)[C@H](O)[C@H]4NC(C)=O)[C@@H]3O)[C@H](O)[C@H]2NC(C)=O)[C@H](O)[C@H]1NC(C)=O)NC(=O)[C@H](Cc1ccc(O)cc1)NC(=O)[C@H](CO)NC(=O)[C@H](CO)NC(=O)[C@@H](NC(=O)[C@H](CC(=O)O)NC(=O)[C@H](CO)NC(=O)[C@@H](NC(=O)[C@H](Cc1ccccc1)NC(=O)[C@@H](NC(=O)CNC(=O)[C@H](CCC(=O)O)NC(=O)[C@H](C)NC(=O)[C@@H](N)Cc1c[nH]cn1)[C@@H](C)O)[C@@H](C)O)C(C)C)C(=O)N[C@@H](C)C(=O)N[C@@H](Cc1c[nH]c2ccccc12)C(=O)N[C@@H](CC(C)C)C(=O)N[C@H](C(=O)N[C@@H](CCCCN)C(=O)NCC(=O)N[C@@H](CCCNC(=N)N)C(=O)NCC(=O)O)C(C)C [Example 16, 20Cys GLP-1-disialo] (H-HAEGTFTSDVSSYC(X1)EGQAAKEFIAWLVKGRG-OH) | strong effect of suppressing rise in blood-sugar levels |  |  |
| CC[C@H](C)[C@H](NC(=O)[C@H](Cc1ccccc1)NC(=O)[C@H](CCC(=O)O)NC(=O)[C@H](CCCCN)NC(=O)[C@H](C)NC(=O)[C@H](C)NC(=O)[C@H](CCC(N)=O)NC(=O)CNC(=O)[C@H](CCC(=O)O)NC(=O)[C@H](CC(C)C)NC(=O)[C@H](Cc1ccc(O)cc1)NC(=O)[C@H](CSCC(=O)N[C@@H]1O[C@H](CO)[C@@H](O[C@@H]2O[C@H](CO)[C@@H](O[C@@H]3O[C@H](CO[C@H]4O[C@H](CO)[C@@H](O)[C@H](O)[C@@H]4O[C@@H]4O[C@H](CO)[C@@H](O[C@@H]5O[C@H](CO[C@]6(C(=O)O)C[C@H](O)[C@@H](NC(C)=O)[C@H]([C@H](O)[C@H](O)CO)O6)[C@H](O)[C@H](O)[C@H]5O)[C@H](O)[C@H]4NC(C)=O)[C@@H](O)[C@H](O[C@H]4O[C@H](CO)[C@@H](O)[C@H](O)[C@@H]4O[C@@H]4O[C@H](CO)[C@@H](O[C@@H]5O[C@H](CO[C@]6(C(=O)O)C[C@H](O)[C@@H](NC(C)=O)[C@H]([C@H](O)[C@H](O)CO)O6)[C@H](O)[C@H](O)[C@H]5O)[C@H](O)[C@H]4NC(C)=O)[C@@H]3O)[C@H](O)[C@H]2NC(C)=O)[C@H](O)[C@H]1NC(C)=O)NC(=O)[C@H](CO)NC(=O)[C@@H](NC(=O)[C@H](CC(=O)O)NC(=O)[C@H](CO)NC(=O)[C@@H](NC(=O)[C@H](Cc1ccccc1)NC(=O)[C@@H](NC(=O)CNC(=O)[C@H](CCC(=O)O)NC(=O)[C@H](C)NC(=O)[C@@H](N)Cc1c[nH]cn1)[C@@H](C)O)[C@@H](C)O)C(C)C)C(=O)N[C@@H](C)C(=O)N[C@@H](Cc1c[nH]c2ccccc12)C(=O)N[C@@H](CC(C)C)C(=O)N[C@H](C(=O)N[C@@H](CCCCN)C(=O)NCC(=O)N[C@@H](CSCC(=O)N[C@@H]1O[C@H](CO)[C@@H](O[C@@H]2O[C@H](CO)[C@@H](O[C@@H]3O[C@H](CO[C@H]4O[C@H](CO)[C@@H](O)[C@H](O)[C@@H]4O[C@@H]4O[C@H](CO)[C@@H](O[C@@H]5O[C@H](CO[C@]6(C(=O)O)C[C@H](O)[C@@H](NC(C)=O)[C@H]([C@H](O)[C@H](O)CO)O6)[C@H](O)[C@H](O)[C@H]5O)[C@H](O)[C@H]4NC(C)=O)[C@@H](O)[C@H](O[C@H]4O[C@H](CO)[C@@H](O)[C@H](O)[C@@H]4O[C@@H]4O[C@H](CO)[C@@H](O[C@@H]5O[C@H](CO[C@]6(C(=O)O)C[C@H](O)[C@@H](NC(C)=O)[C@H]([C@H](O)[C@H](O)CO)O6)[C@H](O)[C@H](O)[C@H]5O)[C@H](O)[C@H]4NC(C)=O)[C@@H]3O)[C@H](O)[C@H]2NC(C)=O)[C@H](O)[C@H]1NC(C)=O)C(=O)NCC(=O)O)C(C)C [Example 49, 18,36Cys GLP-1-disialo] | effect almost equivalent to that of the 36Cys GLP-1-disialo | almost equivalent to that of the GLP-1 at a dose of 9 nmol/kg | about 10 times |
